Results as given in patent US10202361B2, “Pyridazinones as herbicides” (E I DU PONT DE NEMOURS AND COMPANY, priority 2014, dated 2019).
Where two headings read alike, the source gives them in different places.

Assays:
Assay in all cases: Test C pre-/postemergence greenhouse herbicide test
Type in all cases: in vivo
[1] = system: velvetleaf (Abutilon theophrasti); details: Abutilon theophrasti, Velvetleaf, read-out: Plant response rating; for pest or weed control at 62 g/ha: 62 g ai/ha; for pest or weed control at 125 g/ha: 125 g ai/ha; for pest or weed control at 250 g/ha: 250 g ai/ha
How it was run: (§1)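 Visual ratings, 0 = no effect, 100 = complete control, vs untreated controls at 13–15 d. Pre: seeds in loam/sand. Post: 2–18 cm plants (1–4 leaf), peat/vermiculite mix. Surfactant-containing solvent formulation; greenhouse.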

[2] = system: oilseed rape (Brassica napus); details: Oilseed Rape
How it was run: as §1

[3] = system: ryegrass, Italian (Italian ryegrass, Lolium multiflorum); details: Lolium multiflorum, Ryegrass, Italian, read-out: Plant response rating; for pest or weed control at 31 g/ha: 31 g ai/ha; for pest or weed control at 62 g/ha: 62 g ai/ha; for pest or weed control at 125 g/ha: 125 g ai/ha; for pest or weed control at 250 g/ha: 250 g ai/ha
How it was run: as §1

[4] = system: ragweed (common ragweed, Ambrosia elatior); details: Ambrosia artemisiifolia, Ragweed, read-out: Plant response rating; for pest or weed control at 31 g/ha: 31 g ai/ha; for pest or weed control at 62 g/ha: 62 g ai/ha; for pest or weed control at 125 g/ha: 125 g ai/ha; for pest or weed control at 250 g/ha: 250 g ai/ha
How it was run: as §1

[5] = system: foxtail, giant (giant foxtail, Setaria faberii); details: Setaria faberi, Foxtail, Giant, read-out: Plant response rating; for pest or weed control at 31 g/ha: 31 g ai/ha; for pest or weed control at 62 g/ha: 62 g ai/ha; for pest or weed control at 125 g/ha: 125 g ai/ha; for pest or weed control at 250 g/ha: 250 g ai/ha
How it was run: as §1

kochia (Kochia scoparia) = details: Postemergence
How it was run: as §1

[6] = system: nutsedge, yellow (yellow nutsedge, Cyperus esculentus); details: Cyperus, Nutsedge, Yellow, read-out: Plant response rating; for pest or weed control at 31 g/ha: 31 g ai/ha; for pest or weed control at 62 g/ha: 62 g ai/ha; for pest or weed control at 125 g/ha: 125 g ai/ha; for pest or weed control at 250 g/ha: 250 g ai/ha
How it was run: as §1

[7] = system: galium (catchweed bedstraw, Galium aparine); details: Galium, read-out: Plant response rating; for pest or weed control at 31 g/ha: 31 g ai/ha; for pest or weed control at 62 g/ha: 62 g ai/ha; for pest or weed control at 125 g/ha: 125 g ai/ha; for pest or weed control at 250 g/ha: 250 g ai/ha
How it was run: as §1

[8] = system: oat, wild (wild oat, Avena fatua); details: Postemergence
How it was run: as §1

[9] = system: waterhemp (common waterhemp, Amaranthus rudis); details: Waterhemp
How it was run: as §1

[10] = system: morningglory (Ipomoea coccinea); details: Morningglory
How it was run: as §1

[11] = system: pigweed (Amaranthus retroflexus); details: Amaranthus retroflexus, Pigweed, read-out: Plant response rating; for pest or weed control at 31 g/ha: 31 g ai/ha; for pest or weed control at 62 g/ha: 62 g ai/ha; for pest or weed control at 125 g/ha: 125 g ai/ha; for pest or weed control at 250 g/ha: 250 g ai/ha
How it was run: as §1

[12] = system: lambsquarters (Chenopodium album)
How it was run: as §1

What does the source list for `Cc1cc(=O)n(-c2ccc(F)cc2)nc1Cc1ccnc(C(F)(F)F)c1` [Compound 1, 2-(4-fluorophenyl)-5-methyl-6-[[2-(trifluoromethyl)-4-pyridinyl]methyl]-3(2H)-pyridazinone]?
pest or weed control at 31 g/ha ([1]; post-emergence, Postemergence, 31 g ai/ha): 10%; pest or weed control at 62 g/ha ([1]; post-emergence, Postemergence): 20%; pest or weed control at 125 g/ha ([1]; post-emergence, Postemergence): 20%; pest or weed control at 250 g/ha ([1]; post-emergence, Postemergence): 30%; pest or weed control at 62 g/ha ([1]; pre-emergence, Preemergence): 35%; pest or weed control at 125 g/ha ([1]; pre-emergence, Preemergence): 40%; pest or weed control at 250 g/ha ([1]; pre-emergence, Preemergence): 100%; Plant response rating ([2]; Postemergence, 31 g ai/ha): 5; Plant response rating ([2]; Postemergence, 62 g ai/ha): 5; Plant response rating ([2]; Postemergence, 125 g ai/ha): 10; Plant response rating ([2]; Postemergence, 250 g ai/ha): 30; Plant response rating ([2]; Preemergence, 31 g ai/ha): 30; Plant response rating ([2]; Preemergence, 62 g ai/ha): 80; Plant response rating ([2]; Preemergence, 125 g ai/ha): 100; Plant response rating ([2]; Preemergence, 250 g ai/ha): 100; pest or weed control at 31 g/ha ([3]; post-emergence, Postemergence): 5%; pest or weed control at 62 g/ha ([3]; post-emergence, Postemergence): 5%; pest or weed control at 125 g/ha ([3]; post-emergence, Postemergence): 5%; pest or weed control at 250 g/ha ([3]; post-emergence, Postemergence): 5%; pest or weed control at 31 g/ha ([3]; pre-emergence, Preemergence): 5%; pest or weed control at 62 g/ha ([3]; pre-emergence, Preemergence): 10%; pest or weed control at 125 g/ha ([3]; pre-emergence, Preemergence): 85%; pest or weed control at 250 g/ha ([3]; pre-emergence, Preemergence): 98%; pest or weed control at 31 g/ha ([4]; post-emergence, Postemergence): 30%; pest or weed control at 62 g/ha ([4]; post-emergence, Postemergence): 50%; pest or weed control at 125 g/ha ([4]; post-emergence, Postemergence): 50%; pest or weed control at 250 g/ha ([4]; post-emergence, Postemergence): 60%; pest or weed control at 31 g/ha ([4]; pre-emergence, Preemergence): 25%; pest or weed control at 62 g/ha ([4]; pre-emergence, Preemergence): 35%; pest or weed control at 125 g/ha ([4]; pre-emergence, Preemergence): 70%; pest or weed control at 250 g/ha ([4]; pre-emergence, Preemergence): 100%; pest or weed control at 31 g/ha ([5]; post-emergence, Postemergence): 10%; pest or weed control at 62 g/ha ([5]; post-emergence, Postemergence): 10%; pest or weed control at 125 g/ha ([5]; post-emergence, Postemergence): 15%; pest or weed control at 250 g/ha ([5]; post-emergence, Postemergence): 20%; pest or weed control at 31 g/ha ([5]; pre-emergence, Preemergence): 100%; pest or weed control at 62 g/ha ([5]; pre-emergence, Preemergence): 100%; pest or weed control at 125 g/ha ([5]; pre-emergence, Preemergence): 100%; pest or weed control at 250 g/ha ([5]; pre-emergence, Preemergence): 100%; Plant response rating (kochia (Kochia scoparia); 31 g ai/ha): 80; Plant response rating (kochia (Kochia scoparia); 62 g ai/ha): 80; Plant response rating (kochia (Kochia scoparia); 125 g ai/ha): 85; Plant response rating (kochia (Kochia scoparia); 250 g ai/ha): 85; pest or weed control at 31 g/ha ([6]; post-emergence, Postemergence): 0%; pest or weed control at 62 g/ha ([6]; post-emergence, Postemergence): 5%; pest or weed control at 125 g/ha ([6]; post-emergence, Postemergence): 5%; pest or weed control at 250 g/ha ([6]; post-emergence, Postemergence): 5%; pest or weed control at 31 g/ha ([6]; pre-emergence, Preemergence): 10%; pest or weed control at 62 g/ha ([6]; pre-emergence, Preemergence): 30%; pest or weed control at 125 g/ha ([6]; pre-emergence, Preemergence): 50%; pest or weed control at 250 g/ha ([6]; pre-emergence, Preemergence): 55%; pest or weed control at 31 g/ha ([7]; post-emergence, Postemergence): 40%; pest or weed control at 62 g/ha ([7]; post-emergence, Postemergence): 65%; pest or weed control at 125 g/ha ([7]; post-emergence, Postemergence): 70%; pest or weed control at 250 g/ha ([7]; post-emergence, Postemergence): 70%; pest or weed control at 31 g/ha ([7]; pre-emergence, Preemergence): 95%; pest or weed control at 62 g/ha ([7]; pre-emergence, Preemergence): 100%; pest or weed control at 125 g/ha ([7]; pre-emergence, Preemergence): 100%; pest or weed control at 250 g/ha ([7]; pre-emergence, Preemergence): 100%; Plant response rating ([8]; 31 g ai/ha): 5; Plant response rating ([8]; 62 g ai/ha): 5; Plant response rating ([8]; 125 g ai/ha): 5; Plant response rating ([8]; 250 g ai/ha): 5; Plant response rating ([9]; Postemergence, 31 g ai/ha): 50; Plant response rating ([9]; Postemergence, 62 g ai/ha): 50; Plant response rating ([9]; Postemergence, 125 g ai/ha): 65; Plant response rating ([9]; Postemergence, 250 g ai/ha): 65; Plant response rating ([9]; Preemergence, 62 g ai/ha): 100; Plant response rating ([9]; Preemergence, 125 g ai/ha): 100; Plant response rating ([9]; Preemergence, 250 g ai/ha): 100; Plant response rating ([10]; Postemergence, 31 g ai/ha): 60; Plant response rating ([10]; Postemergence, 125 g ai/ha): 70; Plant response rating ([10]; Postemergence, 250 g ai/ha): 70; Plant response rating ([10]; Preemergence, 31 g ai/ha): 50; Plant response rating ([10]; Preemergence, 62 g ai/ha): 90; Plant response rating ([10]; Preemergence, 125 g ai/ha): 100; Plant response rating ([10]; Preemergence, 250 g ai/ha): 100; pest or weed control at 31 g/ha ([11]; post-emergence, Postemergence): 35%; pest or weed control at 62 g/ha ([11]; post-emergence, Postemergence): 55%; pest or weed control at 125 g/ha ([11]; post-emergence, Postemergence): 65%; pest or weed control at 250 g/ha ([11]; post-emergence, Postemergence): 85%; pest or weed control at 31 g/ha ([11]; pre-emergence, Preemergence): 100%; pest or weed control at 62 g/ha ([11]; pre-emergence, Preemergence): 100%; pest or weed control at 125 g/ha ([11]; pre-emergence, Preemergence): 100%; pest or weed control at 250 g/ha ([11]; pre-emergence, Preemergence): 100%; Plant response rating ([12]; Postemergence, 31 g ai/ha): 60; Plant response rating ([12]; Postemergence, 125 g ai/ha): 65; Plant response rating ([12]; Postemergence, 250 g ai/ha): 75; Plant response rating ([12]; Preemergence, 31 g ai/ha): 100; Plant response rating ([12]; Preemergence, 62 g ai/ha): 100; Plant response rating ([12]; Preemergence, 125 g ai/ha): 100; Plant response rating ([12]; Preemergence, 250 g ai/ha): 100
